Test results from PubChem BioAssay (NCI).
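A five-concentration, 48-hour dose response in 96-well plates underlies each endpoint, interpolated linearly between surrounding concentrations. GI50: concentration for 50% inhibition of growth. The concentration for full growth arrest is given as TGI.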

Experiments:
Experiment in all cases: NCI tumour cell line growth inhibition, 48 h
ACHN renal = test system: ACHN renal
MDA-MB-435 = test system: MDA-MB-435
UO-31 renal = test system: UO-31 renal
SNB-19 CNS = test system: SNB-19 CNS
TK-10 renal = test system: TK-10 renal
PC-3 prostate = test system: PC-3 prostate
SF-295 CNS = test system: SF-295 CNS
HL-60(TB) leukemia = test system: HL-60(TB) leukemia
NCI-H522 lung = test system: NCI-H522 lung
HCT-116 colon = test system: HCT-116 colon
DU-145 prostate = test system: DU-145 prostate
BT-549 breast = test system: BT-549 breast
UACC-62 melanoma = test system: UACC-62 melanoma
MALME-3M melanoma = test system: MALME-3M melanoma
CAKI-1 renal = test system: CAKI-1 renal
EKVX NSCLC = test system: EKVX NSCLC
OVCAR-3 ovarian = test system: OVCAR-3 ovarian
M14 melanoma = test system: M14 melanoma
HOP-62 NSCLC = test system: HOP-62 NSCLC
HOP-92 NSCLC = test system: HOP-92 NSCLC
SF-268 CNS = test system: SF-268 CNS
SR leukemia = test system: SR leukemia
SK-MEL-28 melanoma = test system: SK-MEL-28 melanoma
U251 CNS = test system: U251 CNS
UACC-257 melanoma = test system: UACC-257 melanoma
K-562 leukemia = test system: K-562 leukemia
OVCAR-5 ovarian = test system: OVCAR-5 ovarian
T-47D breast = test system: T-47D breast
SK-OV-3 ovarian = test system: SK-OV-3 ovarian
LOX IMVI melanoma = test system: LOX IMVI melanoma
RXF 393 renal = test system: RXF 393 renal
SK-MEL-2 melanoma = test system: SK-MEL-2 melanoma
HCC-2998 colon = test system: HCC-2998 colon
SN12C renal = test system: SN12C renal
SF-539 CNS = test system: SF-539 CNS
OVCAR-4 ovarian = test system: OVCAR-4 ovarian
A498 renal = test system: A498 renal
HCT-15 colon = test system: HCT-15 colon
SK-MEL-5 melanoma = test system: SK-MEL-5 melanoma
SNB-75 CNS = test system: SNB-75 CNS
786-0 renal = test system: 786-0 renal
IGROV1 ovarian = test system: IGROV1 ovarian
MDA-MB-231 breast = test system: MDA-MB-231 breast
NCI/ADR-RES ovarian = test system: NCI/ADR-RES ovarian
NCI-H23 lung = test system: NCI-H23 lung
A549 NSCLC = test system: A549 NSCLC
MOLT-4 leukemia = test system: MOLT-4 leukemia
NCI-H460 lung = test system: NCI-H460 lung
KM12 colon = test system: KM12 colon
COLO 205 colon = test system: COLO 205 colon
SW-620 colon = test system: SW-620 colon
NCI-H226 lung = test system: NCI-H226 lung
HT29 colon = test system: HT29 colon
CCRF-CEM leukemia = test system: CCRF-CEM leukemia
MCF7 breast = test system: MCF7 breast
RPMI-8226 leukemia = test system: RPMI-8226 leukemia

Cc1nnc([S-])o1.[Au+].c1ccc([PH+](c2ccccc2)c2ccccc2)cc1
GI50 (ACHN renal): 1.71 µM
TGI (ACHN renal): 3.08 µM
GI50 (MDA-MB-435): 1.62 µM
TGI (MDA-MB-435): 3.02 µM
GI50 (UO-31 renal): 1.66 µM
TGI (UO-31 renal): 3.02 µM
GI50 (SNB-19 CNS): 1.61 µM
TGI (SNB-19 CNS): 2.98 µM
GI50 (TK-10 renal): 1.8 µM
TGI (TK-10 renal): 3.21 µM
GI50 (PC-3 prostate): 1.59 µM
TGI (PC-3 prostate): 3.07 µM
GI50 (SF-295 CNS): 1.89 µM
TGI (SF-295 CNS): 3.5 µM
GI50 (HL-60(TB) leukemia): 2.99 µM
TGI (HL-60(TB) leukemia): 9.12 µM
GI50 (NCI-H522 lung): 0.595 µM
TGI (NCI-H522 lung): 2.03 µM
GI50 (HCT-116 colon): 1.6 µM
TGI (HCT-116 colon): 3.01 µM
GI50 (DU-145 prostate): 1.75 µM
TGI (DU-145 prostate): 3.26 µM
GI50 (BT-549 breast): 1.58 µM
TGI (BT-549 breast): 2.95 µM
GI50 (UACC-62 melanoma): 1.35 µM
TGI (UACC-62 melanoma): 2.7 µM
GI50 (MALME-3M melanoma): 1.6 µM
TGI (MALME-3M melanoma): 3.06 µM
GI50 (CAKI-1 renal): 1.47 µM
TGI (CAKI-1 renal): 2.8 µM
GI50 (EKVX NSCLC): 1.81 µM
TGI (EKVX NSCLC): 3.24 µM
GI50 (OVCAR-3 ovarian): 1.61 µM
TGI (OVCAR-3 ovarian): 2.98 µM
GI50 (M14 melanoma): 1.79 µM
TGI (M14 melanoma): 3.34 µM
GI50 (HOP-62 NSCLC): 1.87 µM
TGI (HOP-62 NSCLC): 3.53 µM
GI50 (HOP-92 NSCLC): 1.64 µM
TGI (HOP-92 NSCLC): 3.03 µM
GI50 (SF-268 CNS): 1.62 µM
TGI (SF-268 CNS): 3.31 µM
GI50 (SR leukemia): 1.21 µM
TGI (SR leukemia): > 100 µM
GI50 (SK-MEL-28 melanoma): 1.51 µM
TGI (SK-MEL-28 melanoma): 2.86 µM
GI50 (U251 CNS): 1.5 µM
TGI (U251 CNS): 2.86 µM
GI50 (UACC-257 melanoma): 1.57 µM
TGI (UACC-257 melanoma): 3.11 µM
GI50 (K-562 leukemia): 2.38 µM
TGI (K-562 leukemia): > 100 µM
GI50 (OVCAR-5 ovarian): 1.82 µM
TGI (OVCAR-5 ovarian): 3.27 µM
GI50 (T-47D breast): 1.87 µM
TGI (T-47D breast): 4.93 µM
GI50 (SK-OV-3 ovarian): 2.28 µM
TGI (SK-OV-3 ovarian): 4.17 µM
GI50 (LOX IMVI melanoma): 1.63 µM
TGI (LOX IMVI melanoma): 3 µM
GI50 (RXF 393 renal): 1.24 µM
TGI (RXF 393 renal): 2.51 µM
GI50 (SK-MEL-2 melanoma): 1.72 µM
TGI (SK-MEL-2 melanoma): 3.24 µM
GI50 (HCC-2998 colon): 1.82 µM
TGI (HCC-2998 colon): 3.27 µM
GI50 (SN12C renal): 1.67 µM
TGI (SN12C renal): 3.07 µM
GI50 (SF-539 CNS): 1.63 µM
TGI (SF-539 CNS): 2.99 µM
GI50 (OVCAR-4 ovarian): 1.59 µM
TGI (OVCAR-4 ovarian): 2.95 µM
GI50 (A498 renal): 1.57 µM
TGI (A498 renal): 2.93 µM
GI50 (HCT-15 colon): 1.49 µM
TGI (HCT-15 colon): 3.08 µM
GI50 (SK-MEL-5 melanoma): 1.55 µM
TGI (SK-MEL-5 melanoma): 2.94 µM
GI50 (SNB-75 CNS): 1.32 µM
TGI (SNB-75 CNS): 2.6 µM
GI50 (786-0 renal): 1.64 µM
TGI (786-0 renal): 3 µM
GI50 (IGROV1 ovarian): 1.47 µM
TGI (IGROV1 ovarian): 2.82 µM
GI50 (MDA-MB-231 breast): 1.68 µM
TGI (MDA-MB-231 breast): 3.11 µM

CNCCCNc1c2cc(OC)ccc2nc2cccc([N+](=O)[O-])c12
GI50 (UO-31 renal): 0.0855 µM
TGI (UO-31 renal): 0.275 µM
GI50 (SNB-19 CNS): 0.123 µM
TGI (SNB-19 CNS): 0.519 µM
TGI (TK-10 renal): 0.378 µM
TGI (PC-3 prostate): 0.277 µM
GI50 (NCI/ADR-RES ovarian): 0.444 µM
TGI (NCI/ADR-RES ovarian): 3.47 µM
GI50 (SF-295 CNS): 0.0407 µM
TGI (SF-295 CNS): 0.258 µM
GI50 (HL-60(TB) leukemia): 0.0162 µM
GI50 (NCI-H23 lung): 0.0269 µM
TGI (NCI-H23 lung): 0.22 µM
GI50 (HCT-116 colon): 0.0255 µM
TGI (HCT-116 colon): 0.15 µM
GI50 (DU-145 prostate): 0.0454 µM
TGI (DU-145 prostate): 14.8 µM
GI50 (BT-549 breast): 0.186 µM
TGI (BT-549 breast): 0.406 µM
GI50 (A549 NSCLC): 0.032 µM
TGI (A549 NSCLC): 0.247 µM
GI50 (MALME-3M melanoma): 0.11 µM
TGI (MALME-3M melanoma): 0.315 µM
TGI (MOLT-4 leukemia): 0.0482 µM
GI50 (NCI-H460 lung): 0.025 µM
TGI (NCI-H460 lung): 0.103 µM
GI50 (CAKI-1 renal): 0.0306 µM
TGI (CAKI-1 renal): 0.128 µM
GI50 (KM12 colon): 0.0431 µM
TGI (KM12 colon): 0.251 µM
GI50 (EKVX NSCLC): 0.274 µM
TGI (EKVX NSCLC): 1.15 µM
GI50 (COLO 205 colon): 0.0418 µM
TGI (COLO 205 colon): 0.237 µM
GI50 (OVCAR-3 ovarian): 0.234 µM
TGI (OVCAR-3 ovarian): 0.818 µM
GI50 (M14 melanoma): 0.0211 µM
TGI (M14 melanoma): 0.0476 µM
GI50 (SW-620 colon): 0.0369 µM
TGI (SW-620 colon): 0.517 µM
GI50 (HOP-62 NSCLC): 0.0284 µM
TGI (HOP-62 NSCLC): 0.081 µM
GI50 (HOP-92 NSCLC): 0.0232 µM
TGI (HOP-92 NSCLC): 0.137 µM
GI50 (SF-268 CNS): 0.0565 µM
TGI (SF-268 CNS): 0.376 µM
GI50 (SR leukemia): 0.0253 µM
GI50 (NCI-H226 lung): 0.128 µM
TGI (NCI-H226 lung): 0.385 µM
GI50 (SK-MEL-28 melanoma): 0.15 µM
TGI (SK-MEL-28 melanoma): 0.65 µM
GI50 (UACC-257 melanoma): 0.173 µM
TGI (UACC-257 melanoma): 0.397 µM
GI50 (K-562 leukemia): 0.0153 µM
TGI (K-562 leukemia): 0.0449 µM
GI50 (OVCAR-5 ovarian): 0.0246 µM
TGI (OVCAR-5 ovarian): 0.0993 µM
GI50 (SK-OV-3 ovarian): 0.065 µM
TGI (SK-OV-3 ovarian): 0.67 µM
GI50 (LOX IMVI melanoma): 0.0641 µM
TGI (LOX IMVI melanoma): 0.354 µM
GI50 (SN12C renal): 0.0864 µM
TGI (SN12C renal): 16.5 µM
GI50 (SF-539 CNS): 0.132 µM
TGI (SF-539 CNS): 0.366 µM
GI50 (OVCAR-4 ovarian): 0.0166 µM
TGI (OVCAR-4 ovarian): 0.0528 µM
GI50 (HT29 colon): 0.0223 µM
TGI (HT29 colon): 0.0806 µM
GI50 (A498 renal): 0.0637 µM
TGI (A498 renal): 0.271 µM
GI50 (HCT-15 colon): 0.0285 µM
GI50 (SK-MEL-5 melanoma): 0.019 µM
TGI (SK-MEL-5 melanoma): 0.0375 µM
GI50 (SNB-75 CNS): 0.0611 µM
TGI (SNB-75 CNS): 0.224 µM
GI50 (CCRF-CEM leukemia): 0.0173 µM
TGI (CCRF-CEM leukemia): 0.173 µM
GI50 (786-0 renal): 0.0343 µM
TGI (786-0 renal): 0.306 µM
GI50 (IGROV1 ovarian): 0.0338 µM
TGI (IGROV1 ovarian): 0.195 µM
GI50 (MCF7 breast): 0.0234 µM
TGI (MCF7 breast): 0.101 µM
GI50 (MDA-MB-231 breast): 0.0694 µM
TGI (MDA-MB-231 breast): 0.672 µM

CCCCCCCCCCCCC/C=C/[C@H]1[C@@H](C(=O)OC)N1S(=O)c1ccc(C)cc1 (stereo partly specified)
TGI (ACHN renal): > 100 µM
TGI (MDA-MB-435): > 100 µM
TGI (UO-31 renal): > 100 µM
TGI (TK-10 renal): > 100 µM
TGI (PC-3 prostate): > 100 µM
TGI (HL-60(TB) leukemia): 81.3 µM
TGI (NCI-H23 lung): > 100 µM
TGI (NCI-H522 lung): > 100 µM
TGI (HCT-116 colon): > 100 µM
TGI (DU-145 prostate): > 100 µM
TGI (BT-549 breast): > 100 µM
TGI (UACC-62 melanoma): > 100 µM
TGI (MALME-3M melanoma): > 100 µM
TGI (MOLT-4 leukemia): > 100 µM
TGI (EKVX NSCLC): > 100 µM
TGI (COLO 205 colon): > 100 µM
TGI (OVCAR-3 ovarian): > 100 µM
TGI (SW-620 colon): > 100 µM
TGI (HOP-62 NSCLC): > 100 µM
TGI (HOP-92 NSCLC): > 100 µM
TGI (SR leukemia): > 100 µM
TGI (SK-MEL-28 melanoma): > 100 µM
TGI (U251 CNS): > 100 µM
TGI (UACC-257 melanoma): > 100 µM
TGI (K-562 leukemia): > 100 µM
TGI (T-47D breast): > 100 µM
TGI (RPMI-8226 leukemia): > 100 µM
TGI (LOX IMVI melanoma): > 100 µM
TGI (SK-MEL-2 melanoma): > 100 µM
TGI (A498 renal): > 100 µM
TGI (SK-MEL-5 melanoma): > 100 µM
TGI (CCRF-CEM leukemia): > 100 µM
TGI (786-0 renal): > 100 µM
TGI (IGROV1 ovarian): > 100 µM
